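How tested: cells in 96-well plates exposed to compound for 48 hours at five concentrations. GI50: concentration for 50% inhibition of growth. TGI is the concentration that stops growth completely.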
Columns and labels:
Test in all cases: NCI-60 cell line screen, 48 h
[1] = test system: 786-0 renal
[2] = test system: A498 renal
[3] = test system: A549 NSCLC
[4] = test system: ACHN renal
[5] = test system: BT-549 breast
[6] = test system: CAKI-1 renal
[7] = test system: CCRF-CEM leukemia
[8] = test system: COLO 205 colon
[9] = test system: DU-145 prostate
[10] = test system: EKVX NSCLC
[11] = test system: HCC-2998 colon
[12] = test system: HCT-116 colon
[13] = test system: HCT-15 colon
[14] = test system: HL-60(TB) leukemia
[15] = test system: HOP-62 NSCLC
[16] = test system: HOP-92 NSCLC
[17] = test system: HS 578T breast
[18] = test system: HT29 colon
[19] = test system: IGROV1 ovarian
[20] = test system: K-562 leukemia
[21] = test system: KM12 colon
[22] = test system: LOX IMVI melanoma
[23] = test system: M14 melanoma
[24] = test system: MALME-3M melanoma
[25] = test system: MCF7 breast
[26] = test system: MDA-MB-231 breast
[27] = test system: MDA-MB-435
[28] = test system: MOLT-4 leukemia
[29] = test system: NCI-H226 lung
[30] = test system: NCI-H23 lung
[31] = test system: NCI-H460 lung
[32] = test system: NCI-H522 lung
[33] = test system: NCI/ADR-RES ovarian
[34] = test system: OVCAR-3 ovarian
[35] = test system: OVCAR-4 ovarian
[36] = test system: OVCAR-5 ovarian
[37] = test system: OVCAR-8 ovarian
[38] = test system: PC-3 prostate
[39] = test system: RPMI-8226 leukemia
[40] = test system: RXF 393 renal
[41] = test system: SF-268 CNS
[42] = test system: SF-295 CNS
[43] = test system: SF-539 CNS
[44] = test system: SK-MEL-2 melanoma
[45] = test system: SK-MEL-28 melanoma
[46] = test system: SK-MEL-5 melanoma
[47] = test system: SK-OV-3 ovarian
[48] = test system: SN12C renal
[49] = test system: SNB-19 CNS
[50] = test system: SNB-75 CNS
[51] = test system: SR leukemia
[52] = test system: SW-620 colon
[53] = test system: T-47D breast
[54] = test system: TK-10 renal
[55] = test system: U251 CNS
[56] = test system: UACC-257 melanoma
[57] = test system: UACC-62 melanoma
[58] = test system: UO-31 renal

In the case of CCCC(=O)NC(c1ccc2c(c1)OC(F)(F)O2)c1cc(C)c2cccnc2c1O (stereo not drawn), the GI50 [1] is reported as 0.702 µM, the TGI [1] is reported as over 34.5 µM and the GI50 [2] is reported as over 74.7 µM. The TGI [2] was over 100 µM, the GI50 [3] was 0.993 µM and the TGI [3] was over 100 µM. For the same compound, the GI50 [4] was 0.406 µM, the TGI [4] was over 36.6 µM and the GI50 [5] was 0.918 µM. For the same compound, the TGI [5] was over 100 µM, the GI50 [6] was 0.438 µM and the TGI [6] was 21.4 µM. It also gave a GI50 [7] of 0.443 µM, a TGI [7] of over 100 µM and a GI50 [8] of 1.26 µM. The TGI [8] was over 100 µM, the GI50 [9] was 1.78 µM and the TGI [9] was over 100 µM. It also gave a GI50 [10] of 0.987 µM, a TGI [10] of over 100 µM and a GI50 [11] of 0.78 µM. For the same compound, the TGI [11] was over 100 µM, the GI50 [12] was 0.509 µM and the TGI [12] was over 100 µM. It also gave a GI50 [13] of 0.353 µM, a TGI [13] of over 100 µM and a GI50 [14] of 0.391 µM. It also gave a TGI [14] of over 100 µM, a GI50 [15] of 0.592 µM and a TGI [15] of over 100 µM. The GI50 [16] was 0.296 µM, the TGI [16] was 33.4 µM and the GI50 [17] was 2.19 µM. The TGI [17] was over 100 µM, the GI50 [18] was 0.492 µM and the TGI [18] was over 100 µM. For the same compound, the GI50 [19] was 0.453 µM, the GI50 [20] was 0.367 µM and the TGI [20] was over 100 µM. The GI50 [21] was 0.793 µM, the TGI [21] was over 100 µM and the GI50 [22] was 0.451 µM. The TGI [22] was over 33.4 µM, the GI50 [23] was 0.532 µM and the TGI [23] was 3.82 µM. The GI50 [24] was 1.08 µM, the TGI [24] was over 26.7 µM and the GI50 [25] was 0.419 µM. The TGI [25] was over 100 µM, the GI50 [26] was 0.565 µM and the TGI [26] was over 100 µM. The GI50 [27] was 1.09 µM, the TGI [27] was over 100 µM and the GI50 [28] was 0.397 µM. For the same compound, the TGI [28] was over 100 µM, the GI50 [29] was 0.544 µM and the TGI [29] was over 22.8 µM. The GI50 [30] was 0.669 µM, the TGI [30] was over 100 µM and the GI50 [31] was 0.421 µM. The TGI [31] was over 100 µM, the GI50 [32] was 0.326 µM and the TGI [32] was over 32.3 µM. For the same compound, the GI50 [33] was 0.29 µM, the TGI [33] was 4.82 µM and the GI50 [34] was 0.437 µM. For the same compound, the TGI [34] was over 100 µM, the GI50 [35] was 0.446 µM and the TGI [35] was over 100 µM. For the same compound, the GI50 [36] was 1.73 µM, the TGI [36] was over 100 µM and the GI50 [37] was 0.406 µM. It also gave a TGI [37] of over 100 µM, a GI50 [38] of 0.651 µM and a TGI [38] of over 100 µM. It also gave a GI50 [39] of 0.727 µM, a TGI [39] of over 100 µM and a GI50 [40] of 3.17 µM. The TGI [40] was over 47.3 µM, the GI50 [41] was 0.69 µM and the TGI [41] was over 100 µM. For the same compound, the GI50 [42] was 0.691 µM, the TGI [42] was over 100 µM and the GI50 [43] was 0.666 µM. The TGI [43] was 12 µM, the GI50 [44] was 1.28 µM and the TGI [44] was over 68.7 µM. The GI50 [45] was 0.637 µM, the TGI [45] was over 100 µM and the GI50 [46] was 0.714 µM. It also gave a TGI [46] of 2.35 µM, a GI50 [47] of 0.51 µM and a TGI [47] of over 67.5 µM. It also gave a GI50 [48] of 0.886 µM, a TGI [48] of over 100 µM and a GI50 [49] of 0.825 µM. The TGI [49] was over 100 µM, the GI50 [50] was 0.685 µM and the TGI [50] was 8.43 µM. It also gave a GI50 [51] of 0.436 µM, a TGI [51] of over 100 µM and a GI50 [52] of 0.695 µM. It also gave a TGI [52] of over 100 µM, a GI50 [53] of 0.504 µM and a TGI [53] of over 100 µM. It also gave a GI50 [54] of 1.99 µM, a TGI [54] of over 100 µM and a GI50 [55] of 0.473 µM. For the same compound, the TGI [55] was over 84.6 µM, the GI50 [56] was 1.3 µM and the TGI [56] was over 28.9 µM. The GI50 [57] was 0.275 µM, the TGI [57] was 1.97 µM and the GI50 [58] was 0.218 µM.

CN1CCN(c2ccc(Nc3nc(NCCCNS(=O)(=O)c4ccccc4)c4sccc4n3)cc2)CC1 was tested, and the GI50 [1] was 17.8 µM, the TGI [1] was 43.2 µM and the GI50 [2] was 21.9 µM. For the same compound, the TGI [2] was 41.3 µM, the GI50 [3] was 19.3 µM and the TGI [3] was 48.8 µM. The GI50 [4] was 15.2 µM, the TGI [4] was 28.5 µM and the GI50 [5] was 17.1 µM. For the same compound, the TGI [5] was 37.4 µM, the GI50 [6] was 16.4 µM and the TGI [6] was 30 µM. The GI50 [7] was 30.2 µM, the TGI [7] was over 100 µM and the GI50 [8] was 15.5 µM. It also gave a TGI [8] of 31.4 µM, a GI50 [9] of 15.4 µM and a TGI [9] of 28.7 µM. For the same compound, the GI50 [10] was 23.5 µM, the TGI [10] was 64 µM and the GI50 [11] was 17.5 µM. The TGI [11] was 35.6 µM, the GI50 [12] was 7.46 µM and the TGI [12] was over 100 µM. It also gave a GI50 [13] of 3.93 µM, a TGI [13] of 18.8 µM and a GI50 [14] of 14.9 µM. For the same compound, the TGI [14] was 53.6 µM, the GI50 [15] was 17 µM and the TGI [15] was 33.2 µM. For the same compound, the GI50 [16] was 12.3 µM, the TGI [16] was 58.6 µM and the GI50 [17] was 13.5 µM. For the same compound, the TGI [17] was 38.5 µM, the GI50 [18] was 5.79 µM and the TGI [18] was 33.2 µM. It also gave a GI50 [19] of 13.3 µM, a TGI [19] of 27.3 µM and a GI50 [20] of 3.18 µM. It also gave a TGI [20] of over 100 µM, a GI50 [21] of 20.4 µM and a TGI [21] of 65.7 µM. The GI50 [22] was 5.9 µM, the TGI [22] was 20.2 µM and the GI50 [23] was 3.9 µM. It also gave a TGI [23] of 14.3 µM, a GI50 [24] of 13.3 µM and a TGI [24] of 26.2 µM. The GI50 [25] was 9.12 µM, the TGI [25] was 21.5 µM and the GI50 [26] was 12.8 µM. The TGI [26] was 30 µM, the GI50 [27] was 14.2 µM and the TGI [27] was 27.2 µM. It also gave a GI50 [28] of 5.46 µM, a TGI [28] of 46.6 µM and a GI50 [29] of 13.5 µM. It also gave a TGI [29] of 26.8 µM, a GI50 [30] of 15.8 µM and a TGI [30] of 31.6 µM. The GI50 [31] was 16.4 µM, the TGI [31] was 32.9 µM and the GI50 [32] was 14.6 µM. For the same compound, the TGI [32] was 30.3 µM, the GI50 [33] was 21.2 µM and the TGI [33] was 54.8 µM. The GI50 [34] was 21.1 µM, the TGI [34] was 55.6 µM and the GI50 [35] was 13.4 µM. It also gave a TGI [35] of 48.6 µM, a GI50 [36] of 16.6 µM and a TGI [36] of 44.4 µM. For the same compound, the GI50 [37] was 15.5 µM, the TGI [37] was 48.5 µM and the GI50 [38] was 19.9 µM. The TGI [38] was 77.4 µM, the GI50 [39] was 7.3 µM and the TGI [39] was 55.4 µM. For the same compound, the GI50 [41] was 15.3 µM, the TGI [41] was 63.1 µM and the GI50 [42] was 16 µM. For the same compound, the TGI [42] was 30.2 µM, the GI50 [43] was 11.8 µM and the TGI [43] was 24 µM. The GI50 [44] was 17.5 µM, the TGI [44] was 32.3 µM and the GI50 [45] was 13.5 µM. The TGI [45] was 26.3 µM, the GI50 [46] was 16.6 µM and the TGI [46] was 30.6 µM. For the same compound, the GI50 [47] was 29.6 µM, the TGI [47] was 81.3 µM and the GI50 [48] was 14.8 µM. It also gave a TGI [48] of 31.1 µM, a GI50 [49] of 25.6 µM and a TGI [49] of 67.7 µM. For the same compound, the GI50 [50] was 10.3 µM, the TGI [50] was 22 µM and the GI50 [51] was 2.83 µM. The TGI [51] was over 100 µM, the GI50 [52] was 12.4 µM and the TGI [52] was 27.6 µM. The GI50 [53] was 18.3 µM, the TGI [53] was 46.5 µM and the GI50 [54] was 23.7 µM. It also gave a TGI [54] of 48.6 µM, a GI50 [55] of 7.64 µM and a TGI [55] of 52.4 µM. It also gave a GI50 [56] of 16.2 µM, a TGI [56] of 32.8 µM and a GI50 [57] of 12.9 µM. For the same compound, the TGI [57] was 25.7 µM, the GI50 [58] was 12.5 µM and the TGI [58] was 25.5 µM.
